In US6593325B1, “Pyrido-pyridazine derivatives as ligands for GABA receptors” (Merck Sharp & Dohme Ltd., priority 1999, dated 2003):

melting point: 222 to 223 °C
SMILES: Cn1ncnc1COc1nc2c(-c3ccccc3)nncc2cc1-c1ccccc1 [Example 1, 3,8-Diphenyl-2-(2-methyl-2H-[1,2,4]triazol-3-ylmethoxy)pyrido[2,3-d]pyridazine]
